In DBAASP:
Converted amounts (≈) assume the structure as drawn. Values belong to the molecule of their own block, whether it stands above or below them.

Key:
Assay in all cases: ≥ marks a high value that may be exact or a test limit, other limits are often not marked, values filed in µg/mL are converted to µM
[1] = tested on: Escherichia coli ATCC 2592
[2] = tested on: Corynebacterium diphtheriae ATCC 8024
[3] = tested on: Pseudomonas aeruginosa ATCC 9027
[4] = tested on: Staphylococcus epidermidis ATCC 12228
[5] = tested on: Shigella flexneri ATCC 203
[6] = tested on: Micrococcus luteus ATCC 9341
Staphylococcus aureus = tested on: Staphylococcus aureus
[7] = tested on: Bacillus subtilis ATCC 6633
[8] = tested on: Staphylococcus aureus ATCC 6538
[9] = tested on: Candida albicans ATCC 36232
[10] = tested on: Enterococcus faecium mic80
[11] = tested on: Enterococcus faecalis W61950
[12] = tested on: Enterococcus faecium t62764
Pseudomonas aeruginosa 9 = tested on: Pseudomonas aeruginosa 9
[13] = tested on: Enterococcus faecalis ATCC 29212
[14] = tested on: Klebsiella pneumoniae ESBL 61962
[15] = tested on: Pseudomonas aeruginosa 213
[16] = tested on: Klebsiella pneumoniae ESBL 63575
[17] = tested on: Enterobacter cloacae 218R
[18] = tested on: Staphylococcus aureus C623
[19] = tested on: Pseudomonas aeruginosa 198
[20] = tested on: Stenotrophomonas maltophilia ATCC 13637
[21] = tested on: Escherichia coli ESBL 63103
[22] = tested on: Staphylococcus aureus ATCC 25923
[23] = tested on: Pseudomonas aeruginosa PAO1 H103
[24] = tested on: Pseudomonas aeruginosa LES400
[25] = tested on: Escherichia coli ESBL 64771
[26] = tested on: Pseudomonas aeruginosa H1030
[27] = tested on: Enterococcus faecalis f43559
[28] = tested on: Pseudomonas aeruginosa H1027
[29] = tested on: Bacillus subtilis ATCC 23631
[30] = tested on: Pseudomonas syringae pv. syringae EPS 94
[31] = tested on: Xanthomonas fragariae Xf349-9A
[32] = tested on: Erwinia amylovora PMV 6076
[33] = tested on: Xanthomonas arboricola pv. pruni CFBP 5563
[34] = tested on: Salmonella typhimurium ATCC 50013
[35] = tested on: Xanthomonas campestris pv. Vesicatoria 2133-2
[36] = tested on: Pseudomonas aeruginosa ATCC 27553
[37] = tested on: Shigella dysenteriae ATCC 51302
[38] = tested on: Streptococcus pneumoniae ATCC 49619
[39] = tested on: Pseudomonas syringae pv. actinidiae Psa3700.1.1

MIC [1]: ≥ 102 µM | MIC [2]: ≥ 102 µM | MIC [3]: > 102 µM | MIC [4]: > 102 µM | MIC [5]: ≥ 102 µM | MIC [6]: ≥ 102 µM | MIC (Staphylococcus aureus): > 102 µM | MIC [7]: ≥ 102 µM | MIC [8]: > 102 µM | MIC [9]: ≥ 102 µM
Structure (SMILES): CC(C)[C@H](NC(=O)[C@H](CS)NC(=O)[C@@H](NC(=O)[C@H](CCCN=C(N)N)NC(=O)[C@H](CCCCN)NC(=O)CNC(=O)[C@H](CC(N)=O)NC(=O)[C@@H](N)CS)C(C)C)C(=O)N[C@@H](CS)C(N)=O [CNGKRVCVC]

MIC [10]: ≥ 226 µM | MIC [11]: ≥ 226 µM | MIC [12]: ≥ 226 µM | MIC (Pseudomonas aeruginosa 9): ≥ 226 µM | MIC [13]: > 226 µM | MIC [14]: ≥ 226 µM | MIC [15]: ≥ 226 µM | MIC [16]: ≥ 226 µM | MIC [17]: ≥ 226 µM | MIC [18]: ≥ 226 µM | MIC [19]: ≥ 226 µM | MIC [20]: ≥ 226 µM | MIC [21]: ≥ 226 µM | MIC [22]: > 226 µM | MIC [23]: ≥ 226 µM | MIC [24]: ≥ 226 µM | MIC [25]: ≥ 226 µM | MIC [26]: ≥ 226 µM | MIC [27]: ≥ 226 µM | MIC [28]: ≥ 226 µM
Structure (SMILES): CC[C@H](C)[C@H](NC(=O)[C@H](CCCN=C(N)N)NC(=O)[C@@H](N)CCCCN)C(=O)N[C@@H](CCSC)C(=O)N[C@@H](CCCCN)C(=O)N[C@@H](CC(C)C)C(=O)N[C@@H](CCCCN)C(=O)N[C@@H](CCSC)C(=O)N[C@@H](CCCN=C(N)N)C(=O)O [KRIMKLKMR]

MIC [29]: 29.8 µM (≈ 24 µg/mL) | MIC [30]: ≥ 50 µM | MIC [31]: ≥ 50 µM | MIC [32]: ≥ 50 µM | MIC [33]: ≥ 50 µM | MIC [34]: ≥ 59.7 µM | MIC [35]: ≥ 50 µM | MIC [36]: ≥ 79.6 µM | MIC [22]: 49.7 µM (≈ 40 µg/mL) | MIC [37]: ≥ 59.7 µM | MIC [38]: ≥ 69.6 µM | MIC [39]: ≥ 50 µM
Structure (SMILES): CC(C)C[C@H](NC(=O)CNC(=O)[C@H](CC(C)C)NC(=O)[C@H](Cc1ccccc1)NC(=O)[C@@H](NC(=O)[C@@H](N)CCCCN)C(C)C)C(=O)N[C@@H](CCCCN)C(=O)O [KVFLGLK]
